Results on 22 molecules are retold here after patent US9938258B2 (Karyopharm Therapeutics Inc., priority 2012, dated 2018).

Experiment [1] concerns MS751 cells. Nature of the experiment: MTT cell proliferation assay, MS751. It counts as cell-based, human. In a few lines: (§1)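 Absorbance at 490 nm of solubilized formazan, produced during roughly 4 h MTT incubation, gave percent inhibition relative to negative control. Compounds spanned eight concentrations between 1 nM and 30 μM on cells plated overnight at 5,000-10,000 per well.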
(Tetrazolium assays rely on reduction of a dye to a coloured formazan, in cell work by metabolically active cells.)

The test system of experiment [2] is 3T3 cells. Nature of the experiment: MTT cell proliferation assay, 3T3. Type of experiment: cell-based, mouse. In a few lines:
as §1

Experiment [3] has as its system Z138 cells. As to the kind of experiment: MTT cell proliferation assay, Z138. It counts as cell-based. In a few lines: as §1
[4] abbreviates: Homo sapiens, MS751, MS751 cells, approximately 64-72 hours incubation, read-out: MTT Assay IC50, MS751.
Setting [5] is: Mus musculus, NIH3T3, 3T3 cells, approximately 64-72 hours incubation, read-out: MTT Assay IC50, 3T3.
[6] abbreviates: Homo sapiens, Z-138, Z138 cells, approximately 64-72 hours incubation, read-out: MTT Assay IC50, Z138.
Setting [7] is: Homo sapiens, MS751, MS751 cells, eight concentrations 1 nM to 30 μM, incubation approximately 64-72 hours, read-out: MTT Assay IC50, MS751.
Setting [8] is: Mus musculus, NIH3T3, 3T3 cells, eight concentrations 1 nM to 30 μM, incubation approximately 64-72 hours, read-out: MTT Assay IC50, 3T3.
Setting [9] is: Homo sapiens, Z-138, Z138 cells, eight concentrations 1 nM to 30 μM, incubation approximately 64-72 hours, read-out: MTT Assay IC50, Z138.

Where two headings read alike, the source gives them in different places.

Consider `CC(=O)c1ccc(-c2cc(Cl)c3c(c2)CC(CNC(=O)/C=C/c2cc(C)n(-c4ccc(Cl)cc4)c2C)O3)s1` (stereo not drawn) [Compound 209, (E)-N-((5-(5-acetylthiophen-2-yl)-7-chloro-2,3-dihydrobenzofuran-2-yl)methyl)-3-(1-(4-chlorophenyl)-2,5-dimethyl-1H-pyrrol-3-yl)acrylamide], for which the IC50 in experiment [1] (setting [4]), in experiment [2] (setting [5]) and in experiment [3] (setting [6]) was over 30 µM each time.

Regarding `Nc1ccc(/C=C/C(=O)NCC2Cc3cc(-c4ccc(C(=O)N5CCOCC5)cc4)cc(C(F)(F)F)c3O2)cn1` (stereo not drawn) [Compound 346, (E)-3-(6-aminopyridin-3-yl)-N-((5-(4-(morpholine-4-carbonyl)phenyl)-7-(trifluoromethyl)-2,3-dihydrobenzofuran-2-yl)methyl)acrylamide], the IC50 in experiment [1] (setting [4]) was under 0.1 µM; in experiment [2] (setting [5]), under 0.1 µM; in experiment [3] (setting [6]), 0.1 to 5 µM.

Turning to `CC(=O)c1ccc(-c2cc(Cl)c3c(c2)CC(CNC(=O)/C=C(\C)c2cccnc2)O3)s1` (stereo not drawn) [Compound 283, (E)-N-((5-(5-acetylthiophen-2-yl)-7-chloro-2,3-dihydrobenzofuran-2-yl)methyl)-3-(pyridin-3-yl)but-2-enamide], the figures for the IC50 in experiment [1] (setting [4]), in experiment [2] (setting [5]) and in experiment [3] (setting [6]) were 5 to 30 µM, over 30 µM and 5 to 30 µM, respectively.

Consider `CC(=O)c1ccc(-c2cc(Cl)c3c(c2)CC(CNC(=O)/C=C/c2ncc[nH]2)O3)s1` (stereo not drawn) [Compound 278, (E)-N-((5-(5-acetylthiophen-2-yl)-7-chloro-2,3-dihydrobenzofuran-2-yl)methyl)-3-(1H-imidazol-2-yl)acrylamide], for which the IC50 in experiment [1] (setting [7]), in experiment [2] (setting [8]) and in experiment [3] (setting [9]) was over 30 µM each time.

As for `Nc1ccc(/C=C/C(=O)NCC2Cc3cc(-c4cnc(C(=O)N5CCOCC5)c(F)c4)cc(Cl)c3O2)cn1` (stereo not drawn) [Compound 329, (E)-3-(6-Aminopyridin-3-yl)-N-((7-chloro-5-(5-fluoro-6-(morpholine-4-carbonyl)pyridin-3-yl)-2,3-dihydrobenzofuran-2-yl)methyl)acrylamide], the IC50 in experiment [1] (setting [4]) is 0.1 to 5 µM; in experiment [2] (setting [5]), 5 to 30 µM; in experiment [3] (setting [6]), under 0.1 µM.

Take `COc1cc(-c2ccc(C(=O)N3CCOCC3)cc2)cc2c1OC(CNC(=O)/C=C/c1ccc(N)nc1)C2` (stereo not drawn) [Compound 345, (E)-3-(6-aminopyridin-3-yl)-N-((7-methoxy-5-(4-(morpholine-4-carbonyl)phenyl)-2,3-dihydrobenzofuran-2-yl)methyl)acrylamide]: the half-inhibitory concentration (IC50) is under 0.1 µM in experiment [1] (Homo sapiens, MS751, read-out: MTT Assay IC50, MS751); under 0.1 µM in experiment [2] (Mus musculus, NIH3T3, read-out: MTT Assay IC50, 3T3); 0.1 to 5 µM in experiment [3] (Homo sapiens, Z-138, read-out: MTT Assay IC50, Z138).

Take `Nc1ccc(/C=C/C(=O)NCC2Cc3c(-c4cccc(C(=O)N5CCOCC5)c4)ccc(Cl)c3O2)cn1` (stereo not drawn) [Compound 915, (E)-3-(6-aminopyridin-3-yl)-N-((7-chloro-4-(3-(morpholine-4-carbonyl)phenyl)-2,3-dihydrobenzofuran-2-yl)methyl)acrylamide]: the IC50 in experiment [1] (setting [4]) was under 0.1 µM; in experiment [2] (setting [5]), 0.1 to 5 µM; in experiment [3] (setting [6]), under 0.1 µM.

As to `CC(=O)c1ccc(-c2cc(Cl)c3c(c2)CC(CNC(=O)/C=C\c2cccnc2)O3)s1` (single isomer, unassigned) [Compound 313, (Z)-N-((5-(5-acetylthiophen-2-yl)-7-chloro-2,3-dihydrobenzofuran-2-yl)methyl)-3-(pyridin-3-yl)acrylamide], the IC50 in experiment [1] (MS751 cells, approximately 64-72 hours incubation, read-out: MTT Assay IC50, MS751) is 0.1 to 5 µM; in experiment [2] (3T3 cells, approximately 64-72 hours incubation, read-out: MTT Assay IC50, 3T3), over 30 µM; in experiment [3] (Z138 cells, approximately 64-72 hours incubation, read-out: MTT Assay IC50, Z138) it was 0.1 to 5 µM.

For the molecule `CC(C)(C)c1ccc(-c2ccc(C(=O)N3CCOCC3)cc2)c2c1OC(CNC(=O)/C=C/c1ccc(N)nc1)C2` (stereo not drawn) [Compound 355, (E)-3-(6-aminopyridin-3-yl)-N-((7-(tert-butyl)-4-(4-(morpholine-4-carbonyl)phenyl)-2,3-dihydrobenzofuran-2-yl)methyl)acrylamide], the 50% inhibitory concentration (IC50) in experiment [1] (setting [4]) was over 30 µM; in experiment [2] (setting [5]), 0.1 to 5 µM; in experiment [3] (setting [6]), over 30 µM.

Regarding `O=C(/C=C/c1cccnc1)NCC1Cc2cc(-c3cccnc3)cc(Cl)c2O1` (stereo not drawn) [Compound 70, (E)-N-((7-chloro-5-(pyridin-3-yl)-2,3-dihydrobenzofuran-2-yl)methyl)-3-(pyridin-3-yl)acrylamide], the IC50 is 0.1 to 5 µM in experiment [1] (setting [7]), 5 to 30 µM in experiment [2] (setting [8]) and 0.1 to 5 µM in experiment [3] (setting [9]).

Take `CC(=O)c1ccc(-c2cc(Cl)c3c(c2)CC(CN(C)C(=O)/C=C/c2cccnc2)O3)s1` (stereo not drawn) [Compound 125, (E)-N-((5-(5-acetylthiophen-2-yl)-7-chloro-2,3-dihydrobenzofuran-2-yl)methyl)-N-methyl-3-(pyridin-3-yl)acrylamide]: the IC50 in experiment [1] (setting [7]), in experiment [2] (setting [8]) and in experiment [3] (setting [9]) was 5 to 30 µM throughout.

For the molecule `CC(=O)c1ccc(-c2cc(Cl)c3c(c2)CC(CNC(=O)/C=C/c2ccc(C)nc2C)O3)s1` (stereo not drawn) [Compound 174, (E)-N-((5-(5-acetylthiophen-2-yl)-7-chloro-2,3-dihydrobenzofuran-2-yl)methyl)-3-(2,6-dimethylpyridin-3-yl)acrylamide], the IC50 in experiment [1] (setting [7]), in experiment [2] (setting [8]) and in experiment [3] (setting [9]) was over 30 µM each time.

For the molecule `CC(=O)c1ccc(-c2cc(Cl)c3c(c2)CC(CNC(=O)/C=C/c2cccnc2C)O3)s1` (stereo not drawn) [Compound 182, (E)-N-((5-(5-acetylthiophen-2-yl)-7-chloro-2,3-dihydrobenzofuran-2-yl)methyl)-3-(2-methylpyridin-3-yl)acrylamide], the IC50 in experiment [1] (setting [7]) is 5 to 30 µM; in experiment [2] (setting [8]), over 30 µM; in experiment [3] (setting [9]), over 30 µM.

On to `Nc1ccc(/C=C/C(=O)NCC2Cc3c(-c4cncc(C(=O)N5CCOCC5)c4)ccc(Cl)c3O2)cn1` (stereo not drawn) [Compound 913, (E)-3-(6-aminopyridin-3-yl)-N-((7-chloro-4-(5-(morpholine-4-carbonyl)pyridin-3-yl)-2,3-dihydrobenzofuran-2-yl)methyl)acrylamide], for which the IC50 fell in the range of 0.1 to 5 µM in experiment [1] (setting [4]), 5 to 30 µM in experiment [2] (setting [5]) and 0.1 to 5 µM in experiment [3] (setting [6]).

Take `CC(=O)c1ccc(-c2cc(Cl)c3c(c2)CC(CNC(=O)/C=C/c2cnc4ccccc4n2)O3)s1` (stereo not drawn) [Compound 151, (E)-N-((5-(5-acetylthiophen-2-yl)-7-chloro-2,3-dihydrobenzofuran-2-yl)methyl)-3-(quinoxalin-2-yl)acrylamide]: the IC50 in experiment [1] (setting [7]), in experiment [2] (setting [8]) and in experiment [3] (setting [9]) was over 30 µM in each case.

With `CC(=O)c1ccc(-c2cccc3c2OC(CNC(=O)/C=C/c2ccc(N)nc2)C3)s1` (stereo not drawn) [Compound 305, (E)-N-((7-(5-Acetylthiophen-2-yl)-2,3-dihydrobenzofuran-2-yl)methyl)-3-(6-aminopyridin-3-yl)acrylamide], the IC50 in experiment [1] (setting [4]) is 0.1 to 5 µM; in experiment [2] (setting [5]), 5 to 30 µM; in experiment [3] (setting [6]) it was 0.1 to 5 µM.

Consider `Nc1ccc(CNC(=O)/C=C/C2Cc3cc(-c4ccc(C(=O)N5CC(F)(F)C5)cc4)cc(Cl)c3O2)cn1` (stereo not drawn) [Compound 351, (E)-N-((6-aminopyridin-3-yl)methyl)-3-(7-chloro-5-(4-(3,3-difluoroazetidine-1-carbonyl)phenyl)-2,3-dihydrobenzofuran-2-yl)acrylamide], for which the half-inhibitory concentration (IC50) in experiment [1] (setting [4]), in experiment [2] (setting [5]) and in experiment [3] (setting [6]) was 0.1 to 5 µM each time.

With `CC(=O)c1ccc(-c2cc(Cl)c3c(c2)CC(CNC(=O)/C=C/c2ccc(C)o2)O3)s1` (stereo not drawn) [Compound 150, (E)-N-((5-(5-acetylthiophen-2-yl)-7-chloro-2,3-dihydrobenzofuran-2-yl)methyl)-3-(5-methylfuran-2-yl)acrylamide], the IC50 in experiment [1] (setting [7]), in experiment [2] (setting [8]) and in experiment [3] (setting [9]) was over 30 µM throughout.

As to `CCc1nc(C)c(/C=C/C(=O)NCC2Cc3cc(-c4ccc(C(C)=O)s4)cc(Cl)c3O2)[nH]1` (stereo not drawn) [Compound 177, (E)-N-((5-(5-acetylthiophen-2-yl)-7-chloro-2,3-dihydrobenzofuran-2-yl)methyl)-3-(2-ethyl-4-methyl-1H-imidazol-5-yl)acrylamide], the IC50 in experiment [1] (setting [7]) was 0.1 to 5 µM; in experiment [2] (setting [8]) it was over 30 µM; in experiment [3] (setting [9]), 0.1 to 5 µM.

Consider `O=C(/C=C/c1cccnc1)NCC1Cc2cc(-c3ccccc3)cc(Cl)c2O1` (stereo not drawn) [Compound 67, (E)-N-((7-chloro-5-phenyl-2,3-dihydrobenzofuran-2-yl)methyl)-3-(pyridin-3-yl)acrylamide], for which the results for the half-inhibitory concentration (IC50) in experiment [1] (setting [7]), in experiment [2] (setting [8]) and in experiment [3] (setting [9]) were 0.1 to 5 µM, 5 to 30 µM and 0.1 to 5 µM, respectively.

With `CCn1ccnc1/C=C/C(=O)NCC1Cc2cc(-c3ccc(C(C)=O)s3)cc(Cl)c2O1` (stereo not drawn) [Compound 191, (E)-N-((5-(5-acetylthiophen-2-yl)-7-chloro-2,3-dihydrobenzofuran-2-yl)methyl)-3-(1-ethyl-1H-imidazol-2-yl)acrylamide], the IC50 in experiment [1] (setting [4]) was 5 to 30 µM; in experiment [2] (setting [5]), over 30 µM; in experiment [3] (setting [6]) it was 5 to 30 µM.

In the case of `CN(C)c1ccc(-c2cc(Cl)c3c(c2)CC(CNC(=O)/C=C/c2cccnc2)O3)cc1` (stereo not drawn) [Compound 64, (E)-N-((7-chloro-5-(4-(dimethylamino)phenyl)-2,3-dihydrobenzofuran-2-yl)methyl)-3-(pyridin-3-yl)acrylamide], the IC50 in experiment [1] (setting [7]) was 0.1 to 5 µM; in experiment [2] (setting [8]) it was 0.1 to 5 µM; in experiment [3] (setting [9]), under 0.1 µM.

As a reminder, the IC50 is the concentration that gives 50% inhibition.
